Molecules are shown by their SMILES. Entries after “also recorded” stand apart in the source; their conditions may differ.

One assay concerns PA14. The assay is described as follows: AQ (HHQ, PQS) quantification by LC-MS/MS in planktonic cultures, PA14. The format is cell-based, Pseudomonas aeruginosa. The following applies: 3 x IC50. As for the experimental part: Since PqsR controls expression of the pqsABCDE operon encoding the enzymes required for different stages of AQ biosynthesis, quantification of HHQ, and PQS provides a direct measurement for inhibition of the biosynthetic pathway. Compound 40 was evaluated for its effect on AQ biosynthesis at a concentration three times the corresponding IC50 values for PAO1-L and PA14.
Figure 5 Effect of compound 40 on AQ production: Quantification of AQ concentrations after treatment with the PqsR inhibitor 40 at 3x IC50 value for PAO1-L and PA14 each strain. The graph represents the average of three independent experiments carried out in triplicate (n = 9) for both strains.
For each test sample, 100µl of sterile filtered supernatant (the same preparation as for pyocyanin) was spiked with 10µl of an internal standard solution (10µM d4-PQS in MeOH), and diluted with water to a total volume of 500µl. […]
(§1) screening of the LC eluent for specific AQ analytes. Where chromatographic peaks for HHQ and PQS were detected, a peak area was determined and analyte peak area/internal standard peak area calculated.
(§2) AQ quantification in biofilm cultures: […]
(§3) For this experiment, the P. aeruginosa PAO1-L strain and M9 minimal medi um were used. […] The supernatant was col lected and the AQ extraction and quantification were performed following the LC MS/MS protocol described above . […]

The next assay has as its system PAO1-L biofilm cultures. The assay is described as follows: AQ quantification in biofilm cultures. It is filed as cell-based, Pseudomonas aeruginosa. The conditions noted are these: M9 minimal medium, 10 μM, 18 h, versus DMSO control.
From the text: Biofilms are a major challenge in the treatment of chronic P. aeruginosa infections because of their resilience and protection of bacteria from environmental stresses such as those posed by the host immune system and antimicrobial agents (Flemming et al., [2007]; Rybtke et al., [2015]). Many genes that are involved in biofilm formation are directly linked to pqs QS signaling (Rampioni et al., [2016]; Lin et al., [2018]). To evaluate the effect of 40 on AQ signaling in biofilm cultures, PAO1-L was grown in M9 minimal medium and challenged with either DMSO control or of 40 (10 μM). Following incubation and cell removal, supernatants were subjected to LC/MS-MS analysis.
Figure 6 Quantification of AQ concentrations in PAO1-L biofilm cultures treated with 40 (10 μM). […] Biofilms were grown in M9 minimal medium for 18 h in 24-well glass bottom plates and supernatants extracted for AQ analysis. […]
as §1, §2, §3

Regarding `Cn1c2ccccc2c2nnc(SCC(=O)Nc3ccc(Oc4ccccn4)cc3)nc21` [Compound 40, 2-((5-Methyl-5H-[1,2,4]triazino[5,6-b]indol-3-yl)thio)-N-(4-(pyridin-2-yloxy)phenyl)acetamide], in the assay with PA14, the “production of HHQ and PQS” value was “substantially reduce”. In addition, the “biosynthesis of AQ signals in biofilm cultures” value in the assay on PAO1-L biofilm cultures is “effectively inhibit; also recorded: drastically reduced”.

(Values after paper PMC7213079, “Hit Identification of New Potent PqsR Antagonists as Inhibitors of Quorum Sensing in Planktonic and Biofilm Grown Pseudomonas aeruginosa” (Frontiers in Chemistry, 2020).)
